According to patent publication US20220193081A1 (Ellamed IP & Services PTE. LTD., priority 2019, published 2022):
Marks after values point to notes of the source that are not given here.

Tests used:
Format in all cases: physicochemical
[1] = Visual inspection on storage of sildenafil citrate with equal concentration of sucralose in pH adjusted 50% ethanol (Example 2)
Description: At room temperature, a phosphate buffer was prepared by weighing 3.9 g of NaH2PO4.2H2O into a 500 mL volumetric flask and adding approximately 300 mL of purified water until the phosphate fully dissolved. The pH was then adjusted to 7 with the introduction of NaOH and dilute to the requisite volume by the further addition of purified water.
A 50% ethanol mixture was prepared by introducing either purified water, taken from a MilliQ™ unit or phosphate buffer, to equivalent volumes of Ph.Eur. grade absolute alcohol. The pH of the resultant mixture was then adjusted by using either NaOH 1N solutions and/or Sodium Citrate 1N solutions to reach predetermined pH values.
Samples of sucralose were then dissolved in the pH adjusted 50% ethanol, whilst stirred with a magnetic stirrer and a needle, to a predetermined concentration. […] After preparation, the solutions were each filtered through PDVF 0.22 micro filter of 13 mm in size and placed in polypropylene containers of adequate volume.
Before being placed on storage, and at time points 7 and 42 days, the concentration of sildenafil in the mixture was assayed using HPLC. The samples were then stored at either −20° C., 2-8° C. or 25° C. for periods of up to 42 days. Periodically, the samples were visually inspected for evidence of precipitation or crystallization. […]

[2] = Visual inspection on storage of sildenafil citrate in buffered 60% aqueous ethanol (Example 4); settings: pH 5.5, NaOH
Description: (§1) Before being placed on storage, and at time points 7 and 42 days, the concentration of sildenafil in the mixtures were assayed using HPLC. The samples were then stored at either −20° C., 2-8° C. or 25° C. for periods of up to 42 days. Periodically, the samples were visually inspected for evidence of crystallization.

[3] = Maximum dissolution study in 50% aqueous ethanol, visual inspection (Example 5); settings: pH 5.5, NaOH
Description: as §1, with “7, 42 days” for “7”, “2 months,” for “42 days,”, “2 months.” for “42 days.”

[4] = Maximum dissolution study in 50% aqueous ethanol, HPLC assay (Example 5); settings: added until precipitation occurred, pH 5.5, NaOH
Description: as §1, with “7, 42 days” for “7”, “2 months,” for “42 days,”, “2 months.” for “42 days.”

In the case of CCCc1nn(C)c2c(=O)nc(-c3cc(S(=O)(=O)N4CCN(C)CC4)ccc3OCC)[nH]c12.O=C(O)CC(O)(CC(=O)O)C(=O)O [sildenafil citrate, 1-[[3-(4,7-Dihydro-1-methyl-7-oxo-3-propyl-1H-pyrazolo[4,3-d]pyrimidin-5-yl)-4-ethoxyphenyl]sulfonyl]-4-methylpiperazine citrate salt], the “visual inspection for precipitation or crystallization” value ([1]; 15 mg/ml, pH 5.0, Sodium Citrate, 2-8° C.) is reported as “Prec”, the “visual inspection for precipitation or crystallization” value ([1]; 15 mg/ml, pH 5.0, Sodium Citrate, 25° C.) is reported as “Prec” and the “visual inspection for precipitation or crystallization” value ([1]; 15 mg/ml, pH 5.0, Sodium Citrate, −20° C.) is reported as “Prec”. For the same compound, the “visual inspection for precipitation or crystallization” value ([1]; 15 mg/ml, pH 5.2, NaOH, −20° C.) was “Prec”, the “visual inspection for precipitation or crystallization” value ([1]; 15 mg/ml, pH 6.01, NaOH, 50% ethanol/phosphate buffer, 2-8° C.) was “Prec” and the “visual inspection for precipitation or crystallization” value ([1]; 15 mg/ml, pH 6.01, NaOH, 50% ethanol/phosphate buffer, −20° C.) was “Prec”. The “visual inspection for precipitation or crystallization” value ([1]; 15 mg/ml, pH 6.2, NaOH, 2-8° C.) was “Prec”, the “visual inspection for precipitation or crystallization” value ([1]; 15 mg/ml, pH 6.2, NaOH, 25° C.) was “Prec” and the “visual inspection for precipitation or crystallization” value ([1]; 15 mg/ml, pH 6.2, NaOH, −20° C.) was “Prec”. For the same compound, the “visual inspection for precipitation or crystallization” value ([1]; 15 mg/ml, pH 6.2, Sodium Citrate, 2-8° C.) was “Prec”, the “visual inspection for precipitation or crystallization” value ([1]; 15 mg/ml, pH 6.2, Sodium Citrate, −20° C.) was “Prec” and the “visual inspection for precipitation or crystallization” value ([1]; 18 mg/ml, pH 5.2, NaOH, −20° C.) was “Prec”. For the same compound, the “visual inspection for precipitation or crystallization” value ([1]; 18 mg/ml, pH 5.2, Sodium Citrate, −20° C.) was “Prec”, the “visual inspection for precipitation or crystallization” value ([1]; 18 mg/ml, pH 6.0, NaOH, 50% ethanol/phosphate buffer, 2-8° C.) was “Prec” and the “visual inspection for precipitation or crystallization” value ([1]; 18 mg/ml, pH 6.0, NaOH, 50% ethanol/phosphate buffer, −20° C.) was “Prec”. The “visual inspection for precipitation or crystallization” value ([1]; 18 mg/ml, pH 6.0, Sodium Citrate, 2-8° C.) was “Prec”, the “visual inspection for precipitation or crystallization” value ([1]; 18 mg/ml, pH 6.0, Sodium Citrate, −20° C.) was “Prec” and the “visual inspection for precipitation or crystallization” value ([1]; 18 mg/ml, pH 6.2, NaOH, 2-8° C.) was “Prec”. For the same compound, the “visual inspection for precipitation or crystallization” value ([1]; 18 mg/ml, pH 6.2, NaOH, 25° C.) was “Prec”, the “visual inspection for precipitation or crystallization” value ([1]; 18 mg/ml, pH 6.2, NaOH, −20° C.) was “Prec” and the “visual inspection for precipitation or crystallization” value ([1]; 21 mg/ml, pH 5.29, NaOH, 50% ethanol/phosphate buffer, −20° C.) was “Prec”. For the same compound, the “visual inspection for precipitation or crystallization” value ([1]; 21 mg/ml, pH 5.5, NaOH, −20° C.) was “Prec”, the “visual inspection for precipitation or crystallization” value ([1]; 21 mg/ml, pH 5.5, Sodium Citrate, −20° C.) was “Prec” and the “visual inspection for precipitation or crystallization” value ([1]; 21 mg/ml, pH 5.6, NaOH, 50% ethanol/phosphate buffer, 2-8° C.) was “Prec”. The “visual inspection for precipitation or crystallization” value ([1]; 21 mg/ml, pH 5.6, NaOH, 50% ethanol/phosphate buffer, −20° C.) was “Prec”, the “visual inspection for precipitation or crystallization” value ([1]; 21 mg/ml, pH 5.8, NaOH, 2-8° C.) was “Prec” and the “visual inspection for precipitation or crystallization” value ([1]; 21 mg/ml, pH 6.01, NaOH, 50% ethanol/phosphate buffer, 2-8° C.) was “Prec”. The “visual inspection for precipitation or crystallization” value ([1]; 21 mg/ml, pH 6.01, NaOH, 50% ethanol/phosphate buffer, −20° C.) was “Prec”, the “visual inspection for crystallization” value ([2]; 18 mg/ml, with sucralose, 2-8° C.) was “Prec” and the “visual inspection for crystallization” value ([2]; 18 mg/ml, with sucralose, −20° C.) was “Prec”. The “visual inspection for crystallization” value ([2]; 18 mg/ml, without sucralose, 2-8° C.) was “Prec”, the “visual inspection for crystallization” value ([2]; 18 mg/ml, without sucralose, −20° C.) was “Prec” and the “visual inspection for crystallization” value ([2]; 21 mg/ml, without sucralose, 2-8° C.) was “Prec”. The “visual inspection for crystallization” value ([2]; 21 mg/ml, without sucralose, −20° C.) was “Prec”, the “visual inspection for crystallization” value ([3]; Day 0 51.65 mg/ml, without sucralose, 2-8° C.) was “Prec” and the “visual inspection for crystallization” value ([3]; Day 0 51.65 mg/ml, without sucralose, −20° C.) was “Prec”. The “visual inspection for crystallization” value ([3]; Day 0 82.79 mg/ml, with sucralose, 2-8° C.) was “Prec”, the “visual inspection for crystallization” value ([3]; Day 0 82.79 mg/ml, with sucralose, −20° C.) was “Prec” and the “visual inspection for crystallization” value ([3]; Day 0 123.95 mg/ml, with sucralose, 25° C. (single cell in the row)) was “Prec”. The “Day 0 concentration sildenafil” value ([4]; with sucralose (second sample)) was 82.79* mg/ml, the “Day 0 concentration sildenafil” value ([4]; with sucralose (third sample)) was 123.95* mg/ml and the “Day 0 concentration sildenafil” value ([4]; without sucralose (first sample)) was 51.65 mg/mL.
